We go through 20 compounds from patent publication US8871738B2, “Fused bicyclic oxazolidinone CETP inhibitor” (Merck Sharp & Dohme Corp., priority 2011, dated 2014).

SMILES strings stand for the structures.

Chain of endogenous CETP from serum (P11597 18-493 limits assumed): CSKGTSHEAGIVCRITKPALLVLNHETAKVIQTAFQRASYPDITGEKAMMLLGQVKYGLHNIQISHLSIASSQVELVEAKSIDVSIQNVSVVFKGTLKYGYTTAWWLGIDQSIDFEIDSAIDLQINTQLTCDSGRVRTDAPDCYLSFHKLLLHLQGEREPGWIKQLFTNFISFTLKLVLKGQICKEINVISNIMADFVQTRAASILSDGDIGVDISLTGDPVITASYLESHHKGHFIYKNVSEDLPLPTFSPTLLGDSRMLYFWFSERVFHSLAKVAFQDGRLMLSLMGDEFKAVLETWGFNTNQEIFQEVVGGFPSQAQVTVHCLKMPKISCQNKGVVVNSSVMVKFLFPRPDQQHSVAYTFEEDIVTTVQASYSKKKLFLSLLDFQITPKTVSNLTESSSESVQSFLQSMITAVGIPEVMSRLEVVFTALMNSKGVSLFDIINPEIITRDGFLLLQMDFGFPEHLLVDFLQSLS

The assay has as its target endogenous CETP from serum (Homo sapiens (Human), UniProt P11597). As to the kind of experiment: RTA assay in 95% human serum (CETP-catalyzed CE and TG transfer, endogenous CETP). It is filed as biochemical. Conditions: RTA assay in 95% human serum; read-out: IC50.
Take `COc1cc(F)c(C(C)C)cc1-c1ccc(C(F)(F)F)cc1[C@@H]1CCC[C@H]2[C@@H](c3cc(C(F)(F)F)cc(C(F)(F)F)c3)OC(=O)N12` [Example 43, (1R,5S,8aS)-1-[3,5-bis(trifluoromethyl)phenyl]-5-[4′-fluoro-2′-methoxy-5′-(1-methylethyl)-4-(trifluoromethyl)biphenyl-2-yl]hexahydro[1,3]oxazolo[3,4-a]pyridin-3-one]: the half-inhibitory concentration (IC50) is 1210 nM. With `COc1cc(F)c(-c2ccc(C(=O)O)cc2C)cc1-c1ccc(C(F)(F)F)cc1[C@@H]1CCC[C@H]2[C@@H](c3cc(C(F)(F)F)cc(C(F)(F)F)c3)OC(=O)N12` [Example 44, 2″-{(1R,5S,8aS)-1-[3,5-bis(trifluoromethyl)phenyl]-3-oxohexahydro[1,3]oxazolo[3,4-a]pyridin-5-yl}-6′-fluoro-4′-methoxy-2-methyl-4″- (trifluoromethyl)-1,1′:3′,1″- terphenyl-4-carboxylic acid] the figure was 718 nM. In the case of `COc1ncc(C(C)C)cc1-c1ccc(C(F)(F)F)cc1[C@@H]1CC[C@H]2[C@@H](c3cc(C(F)(F)F)cc(C(F)(F)F)c3)OC(=O)N12` [Example 45, (1R,5S,7aS)-1-[3,5-bis(trifluoromethyl)phenyl]-5-{2-[2-methoxy-5-(1-methylethyl)pyridin-3-yl]-5-(trifluoromethyl)phenyl}tetrahydro-1H-pyrrolo[1,2-c][1,3]oxazol-3-one], the half-maximal inhibitory concentration (IC50) was 44.7 nM.

In the case of `COc1cc(F)c(CCC(=O)O)cc1-c1ccc(C(F)(F)F)cc1[C@@H]1CCC[C@H]2[C@@H](c3cc(C(F)(F)F)cc(C(F)(F)F)c3)OC(=O)N12` [Example 46, 3-[2′-{(1R,5S,8aS)-1-[3,5-bis(trifluoromethyl)phenyl]-3-oxohexahydro[1,3]oxazolo[3,4-a]pyridin-5-yl}-4-fluoro-6-methoxy-4′-(trifluoromethyl)biphenyl-3-yl]propanoic acid], the half-maximal inhibitory concentration (IC50) came out at 1630 nM.

Take `COc1ccc(-c2ccc(C(=O)O)cc2C)cc1-c1ccc(N(C)C)nc1[C@@H]1C=C[C@H]2[C@@H](c3cc(C(F)(F)F)cc(C(F)(F)F)c3)OC(=O)N12` [Example 47, 3′-[2-{(1R,5S,7aS)-1-[3,5-bis(trifluoromethyl)phenyl]-3-oxo-5,7a-dihydro-1H-pyrrolo[1,2-c][1,3]oxazol-5-yl}-6-(dimethylamino)pyridin-3-yl]-4′-methoxy-2-methylbiphenyl-4-carboxylic acid]: the concentration for half-maximal inhibition (IC50) turned out to be 491 nM. In the case of `COc1cc(F)c(C(C)C)cc1-c1cnc(N(C)C)nc1[C@@H]1C=C[C@H]2[C@@H](c3cc(C(F)(F)F)cc(C(F)(F)F)c3)OC(=O)N12` [Example 48, (1R,5S,7aS)-1-[3,5-bis(trifluoromethyl)phenyl]-5-{2-(dimethylamino)-5-[4-fluoro-2-methoxy-5-(1-methylethyl)phenyl]pyrimidin-4-yl}-5,7a-dihydro-1H-pyrrolo[1,2-c][1,3]oxazol-3-one], the 50% inhibitory concentration (IC50) came to 695 nM.

Turning to `COc1cc(F)c(C(C)C)cc1-c1cnc(N(C)C)cc1[C@@H]1C=C[C@H]2[C@@H](c3cc(C(F)(F)F)cc(C(F)(F)F)c3)OC(=O)N12` [Example 49, (1R,5S,7aS)-1-[3,5-bis(trifluoromethyl)phenyl]-5-{2-(dimethylamino)-5-[4-fluoro-2-methoxy-5-(1-methylethyl)phenyl]pyridin-4-yl}-5,7a-dihydro-1H-pyrrolo[1,2-c][1,3]oxazol-3-one], the IC50 came to 438 nM. With `COc1cc(F)c(-c2ccc(C(=O)O)cc2C)cc1-c1ccc(C(F)(F)F)cc1[C@@H]1C=C[C@H]2[C@@H](c3cc(C(F)(F)F)cc(C(F)(F)F)c3)OC(=O)N12` [Example 50, 2″-{(1R,5S,7aS)-1-[3,5-bis(trifluoromethyl)phenyl]-3-oxo-5,7a-dihydro-1H-pyrrolo[1,2-c][1,3]oxazol-5-yl}-6′-fluoro-4′-methoxy-2-methyl-4″- (trifluoromethyl)-1,1′:3′,1″- terphenyl-4-carboxylic acid] the figure was 47.9 nM; with `COc1cc(F)c(C(C)C)cc1-c1ccc(C(F)(F)F)cc1[C@@H]1C=C[C@H]2[C@@H](c3cc(C(F)(F)F)cc(C(F)(F)F)c3)OC(=O)N12` [Example 51, (1R,5S,7aS)-1-[3,5-bis(trifluoromethyl)phenyl]-5-[4′-fluoro-2′-methoxy-5′-(1-methylethyl)-4-(trifluoromethyl)biphenyl-2-yl]-5,7a-dihydro-1H-pyrrolo[1,2-c][1,3]oxazol-3-one], 122 nM.

Regarding `COc1ccc(C2CCC(C(=O)O)CC2)cc1-c1ccc(C(F)(F)F)cc1[C@@H]1CC[C@H]2[C@@H](c3cc(C)cc(C(F)(F)F)c3)OC(=O)N12` (stereo partly drawn) [Example 52, 4-[6-methoxy-2′-{(1R,5S,7aS)-1-[3-methyl-5-(trifluoromethyl)phenyl]-3-oxotetrahydro-1H-pyrrolo[1,2-c][1,3]oxazol-5-yl}-4′-(trifluoromethyl)biphenyl-3-yl]cyclohexanecarboxylic acid], the IC50 came out at 260 nM. `COc1cc(F)c(-c2ccc(C(=O)O)cc2C)cc1-c1cnc(C(F)(F)F)cc1[C@@H]1CC[C@H]2[C@@H](c3cc(C(F)(F)F)cc(C(F)(F)F)c3)OC(=O)N12` [Example 53, 5′-[4-{(1R,5S,7aS)-1-[3,5-bis(trifluoromethyl)phenyl]-3-oxotetrahydro-1H-pyrrolo[1,2-c][1,3]oxazol-5-yl}-6-(trifluoromethyl)pyridin-3-yl]-2′-fluoro-4′-methoxy-2-methylbiphenyl-4-carboxylic acid]: the IC50 stood at 191 nM. The figure for `COc1ncc(-c2ccc(C(=O)O)cc2C)cc1-c1ccc(C(F)(F)F)cc1[C@@H]1CC[C@H]2[C@@H](c3cc(C)cc(C(F)(F)F)c3)OC(=O)N12` [Example 55, 4-{6-methoxy-5-[2-{(1R,5S,7aS)-1-[3-methyl-5-(trifluoromethyl)phenyl]-3-oxotetrahydro-1H-pyrrolo[1,2-c][1,3]oxazol-5-yl}-4-(trifluoromethyl)phenyl]pyridin-3-yl}-3-methylbenzoic acid] is 85 nM; for `COc1ncc(-c2c(C)cc(C(=O)O)cc2C)cc1-c1ccc(C(F)(F)F)cc1[C@@H]1CC[C@H]2[C@@H](c3cc(C(F)(F)F)cc(C(F)(F)F)c3)OC(=O)N12` [Example 56, 4-{5-[2-{(1R,5S,7aS)-1-[3,5-bis(trifluoromethyl)phenyl]-3-oxotetrahydro-1H-pyrrolo[1,2-c][1,3]oxazol-5-yl}-4-(trifluoromethyl)phenyl]-6-methoxypyridin-3-yl}-3,5-dimethylbenzoic acid] it is 47 nM. Consider `COc1ccc([C@@H]2C[C@@H](O)[C@@H](O)C2)cc1-c1ccc(C(F)(F)F)cc1[C@@H]1CC[C@H]2[C@@H](c3cc(C(F)(F)F)cc(C(F)(F)F)c3)OC(=O)N12` [Example 58, (1R,5S,7aS)-1-[3,5-bis(trifluoromethyl)phenyl]-5-{5′-[(1s,3R,4S)-3,4-dihydroxycyclopentyl]-2′-methoxy-4-(trifluoromethyl)biphenyl-2-yl}tetrahydro-1H-pyrrolo[1,2-c][1,3]oxazol-3-one], for which the IC50 amounted to 418 nM.

Consider `Cc1cc(C(=O)O)ccc1-c1cnc(C)c(-c2ccc(C(F)(F)F)cc2[C@@H]2CC[C@H]3[C@@H](c4cc(C(F)(F)F)cc(C(F)(F)F)c4)OC(=O)N23)c1` [Example 66, 4-{5-[2-{(1R,5S,7aS)-1-[3,5-bis(trifluoromethyl)phenyl]-3-oxotetrahydro-1H-pyrrolo[1,2-c][1,3]oxazol-5-yl}-4-(trifluoromethyl)phenyl]-6-methylpyridin-3-yl}-3-methylbenzoic acid], for which the IC50 was 1290 nM. As for `COc1ncc(-c2ccc(C(=O)O)cc2C)cc1-c1ccc(C(F)(F)F)cc1[C@@H]1C=C[C@H]2[C@@H](c3cc(C(F)(F)F)cc(C(F)(F)F)c3)OC(=O)N12` [Example 67, 4-(5-(2-((1R,5S,7aS)-1-(3,5-bis(trifluoromethyl)phenyl)-3-oxo-1,3,5,7a-tetrahydropyrrolo[1,2-c]oxazol-5-yl)-4-(trifluoromethyl)phenyl)-6-methoxypyridin-3-yl)-3-methylbenzoic acid], the IC50 worked out at 199 nM. With `COc1ccc(-c2ccc(C(=O)O)cc2C)cc1-c1ncc(C(F)(F)F)cc1[C@@H]1C=C[C@H]2[C@@H](c3cc(C(F)(F)F)cc(C(F)(F)F)c3)OC(=O)N12` [Example 68, 3′-(3-((1R,5S,7aS)-1-(3,5-bis(trifluuoromethyl)phenyl)-3-oxo-1,3,5,7a-tetrahydropyrrolo[1,2-c]oxazol-5-yl)-5-(trifluoromethyl)pyridin-2-yl)-4′-methoxy-2-methyl-[1,1′-biphenyl]-4-carboxylic acid] the figure was 424 nM. With `COc1ncc(-c2ccc(C(=O)O)cc2C)cc1-c1ncc(C(F)(F)F)cc1[C@@H]1C=C[C@H]2[C@@H](c3cc(C(F)(F)F)cc(C(F)(F)F)c3)OC(=O)N12` [Example 69, 4-(3-((1R,5S,7aS)-1-(3,5-bis(trifluoromethyl)phenyl)-3-oxo-1,3,5,7a-tetrahydropyrrolo[1,2-c]oxazol-5-yl)-2′-methoxy-5-(trifluoromethyl)-[2,3′-bipyridin]-5′-yl)-3-methylbenzoic acid] the figure was 456 nM.

Regarding `COc1ncc(-c2c(C)cc(C(=O)O)cc2C)cc1-c1ncc(C(F)(F)F)cc1[C@@H]1CC[C@H]2[C@@H](c3cc(C(F)(F)F)cc(C(F)(F)F)c3)OC(=O)N12` [Example 70, 4-[3-{(1R,5S,7aS)-1-[3,5-bis(trifluoromethyl)phenyl]-3-oxotetrahydro-1H-pyrrolo[1,2-c][1,3]oxazol-5-yl}-2′-methoxy-5-(trifluoromethyl)-2,3′-bipyridin-5′-yl]-3,5-dimethylbenzoic acid], the IC50 came to 751 nM. With `COc1ccc([C@@H]2CC(=O)N[C@H]2C)cc1-c1ccc(C(F)(F)F)cc1[C@@H]1CC[C@H]2[C@@H](c3cc(C(F)(F)F)cc(C(F)(F)F)c3)OC(=O)N12` [Example 76, (1R,5S,7aS)-1-[3,5-bis(trifluoromethyl)phenyl]-5-{2′-methoxy-5′-[(2S,3S)-2-methyl-5-oxopyrrolidin-3-yl]-4-(trifluoromethyl)biphenyl-2-yl}tetrahydro-1H-pyrrolo[1,2-c][1,3]oxazol-3-one] the figure was 466 nM.

Broadly, the IC50 is the point on the concentration scale where inhibition reaches its midpoint.
